Source: patent US20100298141A1, “SUBSTITUTED PYRIDINE N-OXIDE HERBICIDES” (E. I. DU PONT DE NEMOURS AND COMPANY, priority 2007, published 2010)

How the values were obtained:
eastern black nightshade = experiment: Test C pre-/postemergence test; assay type: in vivo, Solanum ptycanthum
Summary of the method: (§1)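 Test chemicals were formulated with surfactant in a non-phytotoxic solvent and sprayed both on freshly planted seeds (preemergence) and on 1- to 4-leaf plants of 2–18 cm (postemergence). Flooded-paddy pots received compound directly into 3 cm of standing water, maintained for the test.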

kochia = experiment: Test C pre-/postemergence test; assay type: in vivo, Kochia scoparia
Summary of the method: as §1

[1] = tested on: common (oilseed) sunflower; experiment: Test C pre-/postemergence test; assay type: in vivo, Helianthus annuus
Summary of the method: as §1

downy brome = experiment: Test C pre-/postemergence test; assay type: in vivo, Bromus tectorum; conditions: for Plant response rating (0 to 100), Bromegrass, Downy: 250 g ai/ha
Summary of the method: as §1

cocklebur = experiment: Test C pre-/postemergence test; assay type: in vivo, Xanthium strumarium; conditions: for Plant response rating (0 to 100), Cocklebur: 250 g ai/ha
Summary of the method: as §1

Surinam grass = experiment: Test C pre-/postemergence test; assay type: in vivo, Brachiaria decumbens
Summary of the method: as §1

common ragweed = experiment: Test C pre-/postemergence test; assay type: in vivo, Ambrosia elation
Summary of the method: as §1

catchweed bedstraw = experiment: Test C pre-/postemergence test; assay type: in vivo, Galium aparine; conditions: for Plant response rating (0 to 100), Galium: 250 g ai/ha
Summary of the method: as §1

wild oat = experiment: Test C pre-/postemergence test; assay type: in vivo, Avena fatua
Summary of the method: as §1

giant foxtail [2] = experiment: Test C pre-/postemergence test; assay type: in vivo, Setaria faberii; conditions: for Plant response rating (0 to 100), Foxtail, Giant: 250 g ai/ha
Summary of the method: as §1

giant foxtail [3] = experiment: Test A pre-/postemergence greenhouse test; assay type: in vivo, Setaria faberi; conditions: for Foxtail, Giant plant response rating: 0 to 100 scale; for Plant response rating, Foxtail, Giant: 0 to 100 scale where 0 is no effect and 100 is complete control
Summary of the method: (§2)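 Untreated controls served as the reference for visual injury ratings taken about ten days after spraying. The non-phytotoxic solvent/surfactant formulation was applied preemergence to seeded loam and sand and postemergence to plants two to ten cm high.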

lambsquarters = experiment: Test C pre-/postemergence test; assay type: in vivo, Chenopodium album
Summary of the method: as §1

wheat [4] = experiment: Test A pre-/postemergence greenhouse test; assay type: in vivo, Triticum aestivum; conditions: for Wheat plant response rating: 0 to 100 scale; for Plant response rating, Wheat: 0 to 100 scale where 0 is no effect and 100 is complete control
Summary of the method: as §2

wheat [5] = experiment: Test C pre-/postemergence test; assay type: in vivo, Triticum aestivum
Summary of the method: as §1

redroot pigweed = experiment: Test A pre-/postemergence greenhouse test; assay type: in vivo, Amaranthus retroflexus; conditions: for Pigweed plant response rating: 0 to 100 scale; for Plant response rating, Pigweed: 0 to 100 scale where 0 is no effect and 100 is complete control
Summary of the method: as §2

morningglory = experiment: Test A pre-/postemergence greenhouse test; assay type: in vivo, Ipomoea spp.; conditions: for Morningglory plant response rating: 0 to 100 scale; for Plant response rating, Morningglory: 0 to 100 scale where 0 is no effect and 100 is complete control
Summary of the method: as §2

woolly cupgrass = experiment: Test C pre-/postemergence test; assay type: in vivo, Eriochloa villosa; conditions: for Plant response rating (0 to 100), Cupgrass, Woolly: 250 g ai/ha
Summary of the method: as §1

velvetleaf = experiment: Test C pre-/postemergence test; assay type: in vivo, Abutilon theophrasti
Summary of the method: as §1

blackgrass = experiment: Test C pre-/postemergence test; assay type: in vivo, Alopecurus myosuroides; conditions: for Plant response rating (0 to 100), Blackgrass: 250 g ai/ha
Summary of the method: as §1

[6] = 62 g ai/ha, Preemergence, scale 0 to 100
[7] = Preemergence, 31 g ai/ha, scale 0 to 100 (0 no effect, 100 complete control)
[8] = preemergence, 125 g ai/ha, scale 0 (no effect) to 100 (complete control)
[9] = Postemergence, 125 g ai/ha, 0 is no effect, 100 is complete control
[10] = Postemergence, 500 g ai/ha, 0 is no effect, 100 is complete control
[11] = Preemergence, 125 g ai/ha, 0 no effect, 100 complete control
[12] = 31 g ai/ha, Preemergence, scale 0 to 100
[13] = 62 g ai/ha, preemergence, scale 0 (no effect) to 100 (complete control)

## Cc1cc[n+]([O-])c([S+]([O-])Cc2c(C(F)(F)F)nn(C)c2OCC(F)(F)F)c1 (racemic) [Compound 30]
Eastern black nightshade; [6]
  Nightshade plant response rating: 100
Eastern black nightshade; [7]
  Plant response rating, Nightshade: 100
kochia; [6]
  Kochia plant response rating: 100
kochia; [7]
  Plant response rating, Kochia: 100
[1]; [6]
  Sunflower plant response rating: 70
[1]; [7]
  Plant response rating, Sunflower: 40
Downy brome; [6]
  Bromegrass, Downy plant response rating: 0
Downy brome; [7]
  Plant response rating, Bromegrass, Downy: 0
Downy brome; Preemergence
  Plant response rating (0 to 100), Bromegrass, Downy: 60
Downy brome; [8]
  Bromegrass, Downy plant response rating: 60
cocklebur; [6]
  Cocklebur plant response rating: 0
cocklebur; [7]
  Plant response rating, Cocklebur: 0
cocklebur; Preemergence
  Plant response rating (0 to 100), Cocklebur: 85
cocklebur; [8]
  Cocklebur plant response rating: 80
Surinam grass; [6]
  Surinam Grass plant response rating: 100
Surinam grass; [7]
  Plant response rating, Surinam Grass: 60
Common ragweed; [6]
  Ragweed plant response rating: 60
Common ragweed; [7]
  Plant response rating, Ragweed: 0
Catchweed bedstraw; [6]
  Galium plant response rating: 100
Catchweed bedstraw; [7]
  Plant response rating, Galium: 100
Catchweed bedstraw; Preemergence
  Plant response rating (0 to 100), Galium: 100
Wild oat; [6]
  Oat, Wild plant response rating: 60
Wild oat; [7]
  Plant response rating, Oat, Wild: 10
Giant foxtail [2]; [6]
  Foxtail, Giant plant response rating: 100
Giant foxtail [2]; [7]
  Plant response rating, Foxtail, Giant: 100
Giant foxtail [2]; Preemergence
  Plant response rating (0 to 100), Foxtail, Giant: 100
Giant foxtail [3]; [9]
  Foxtail, Giant plant response rating: 80
Giant foxtail [3]; [10]
  Foxtail, Giant plant response rating: 90
Giant foxtail [3]; [11]
  Foxtail, Giant plant response rating: 100
Giant foxtail [3]; Preemergence, 500 g ai/ha
  Plant response rating, Foxtail, Giant: 100
lambsquarters; [6]
  Lambsquarters plant response rating: 100
lambsquarters; [7]
  Plant response rating, Lambsquarters: 100
Wheat [4]; [9]
  Wheat plant response rating: 60
Wheat [4]; [10]
  Wheat plant response rating: 70
Wheat [4]; [11]
  Wheat plant response rating: 80
Wheat [4]; Preemergence, 500 g ai/ha
  Plant response rating, Wheat: 90
Wheat [5]; [6]
  Wheat plant response rating: 25
Wheat [5]; [7]
  Plant response rating, Wheat: 0
Redroot pigweed; [9]
  Pigweed plant response rating: 90
Redroot pigweed; [10]
  Pigweed plant response rating: 100
Redroot pigweed; [11]
  Pigweed plant response rating: 100
Redroot pigweed; Preemergence, 500 g ai/ha
  Plant response rating, Pigweed: 100
morningglory; [9]
  Morningglory plant response rating: 70
morningglory; [10]
  Morningglory plant response rating: 90
morningglory; [11]
  Morningglory plant response rating: 100
morningglory; Preemergence, 500 g ai/ha
  Plant response rating, Morningglory: 100
Woolly cupgrass; [6]
  Cupgrass, Woolly plant response rating: 100
Woolly cupgrass; [7]
  Plant response rating, Cupgrass, Woolly: 50
Woolly cupgrass; Preemergence
  Plant response rating (0 to 100), Cupgrass, Woolly: 100
velvetleaf; [6]
  Velvetleaf plant response rating: 100
velvetleaf; [7]
  Plant response rating, Velvetleaf: 70
blackgrass; [6]
  Blackgrass plant response rating: 100
blackgrass; [7]
  Plant response rating, Blackgrass: 80
blackgrass; Preemergence
  Plant response rating (0 to 100), Blackgrass: 100
blackgrass; [8]
  Blackgrass plant response rating: 100

## Cc1cc[n+]([O-])c(S(=O)(=O)C(C)c2c(C(F)(F)F)nn(C)c2OC(F)F)c1 (stereo not drawn) [Compound 11]
Eastern black nightshade; [12]
  Nightshade plant response rating: 95
Eastern black nightshade; [13]
  Nightshade plant response rating: 100
Eastern black nightshade; Preemergence, 250 g ai/ha
  Plant response rating (0 to 100), Nightshade: 100
Eastern black nightshade; [8]
  Nightshade plant response rating: 100
kochia; [12]
  Kochia plant response rating: 60
kochia; [13]
  Kochia plant response rating: 100
kochia; Preemergence, 250 g ai/ha
  Plant response rating (0 to 100), Kochia: 100
kochia; [8]
  Kochia plant response rating: 100
[1]; [13]
  Sunflower plant response rating: 30
[1]; Preemergence, 250 g ai/ha
  Plant response rating (0 to 100), Sunflower: 98
[1]; [8]
  Sunflower plant response rating: 98
Downy brome; [12]
  Bromegrass, Downy plant response rating: 0
Downy brome; [13]
  Bromegrass, Downy plant response rating: 10
Downy brome; Preemergence
  Plant response rating (0 to 100), Bromegrass, Downy: 60
Downy brome; [8]
  Bromegrass, Downy plant response rating: 50
cocklebur; [12]
  Cocklebur plant response rating: 0
cocklebur; [13]
  Cocklebur plant response rating: 0
cocklebur; Preemergence
  Plant response rating (0 to 100), Cocklebur: 0
cocklebur; [8]
  Cocklebur plant response rating: 0
Surinam grass; [13]
  Surinam Grass plant response rating: 80
Surinam grass; Preemergence, 250 g ai/ha
  Plant response rating (0 to 100), Surinam Grass: 100
Surinam grass; [8]
  Surinam Grass plant response rating: 95
Common ragweed; [12]
  Ragweed plant response rating: 55
Common ragweed; [13]
  Ragweed plant response rating: 75
Common ragweed; Preemergence, 250 g ai/ha
  Plant response rating (0 to 100), Ragweed: 100
Common ragweed; [8]
  Ragweed plant response rating: 95
Catchweed bedstraw; [12]
  Galium plant response rating: 50
Catchweed bedstraw; [13]
  Galium plant response rating: 100
Catchweed bedstraw; Preemergence
  Plant response rating (0 to 100), Galium: 100
Catchweed bedstraw; [8]
  Galium plant response rating: 100
Wild oat; [12]
  Oat, Wild plant response rating: 0
Wild oat; [13]
  Oat, Wild plant response rating: 0
Wild oat; Preemergence, 250 g ai/ha
  Plant response rating (0 to 100), Oat, Wild: 80
Wild oat; [8]
  Oat, Wild plant response rating: 20
Giant foxtail [2]; [12]
  Foxtail, Giant plant response rating: 80
Giant foxtail [2]; [13]
  Foxtail, Giant plant response rating: 98
Giant foxtail [2]; Preemergence
  Plant response rating (0 to 100), Foxtail, Giant: 100
Giant foxtail [3]; [9]
  Foxtail, Giant plant response rating: 70
Giant foxtail [3]; [10]
  Foxtail, Giant plant response rating: 80
Giant foxtail [3]; [11]
  Foxtail, Giant plant response rating: 100
Giant foxtail [3]; Preemergence, 500 g ai/ha
  Plant response rating, Foxtail, Giant: 100
lambsquarters; [12]
  Lambsquarters plant response rating: 100
lambsquarters; [13]
  Lambsquarters plant response rating: 100
lambsquarters; Preemergence, 250 g ai/ha
  Plant response rating (0 to 100), Lambsquarters: 100
lambsquarters; [8]
  Lambsquarters plant response rating: 100
Wheat [4]; [9]
  Wheat plant response rating: 50
Wheat [4]; [10]
  Wheat plant response rating: 60
Wheat [4]; [11]
  Wheat plant response rating: 50
Wheat [4]; Preemergence, 500 g ai/ha
  Plant response rating, Wheat: 80
Wheat [5]; [13]
  Wheat plant response rating: 20
Wheat [5]; Preemergence, 250 g ai/ha
  Plant response rating (0 to 100), Wheat: 85
Wheat [5]; [8]
  Wheat plant response rating: 80
Redroot pigweed; [9]
  Pigweed plant response rating: 10
Redroot pigweed; [10]
  Pigweed plant response rating: 60
Redroot pigweed; [11]
  Pigweed plant response rating: 100
Redroot pigweed; Preemergence, 500 g ai/ha
  Plant response rating, Pigweed: 100
morningglory; [9]
  Morningglory plant response rating: 40
morningglory; [10]
  Morningglory plant response rating: 50
morningglory; [11]
  Morningglory plant response rating: 60
morningglory; Preemergence, 500 g ai/ha
  Plant response rating, Morningglory: 90
Woolly cupgrass; [12]
  Cupgrass, Woolly plant response rating: 60
Woolly cupgrass; [13]
  Cupgrass, Woolly plant response rating: 80
Woolly cupgrass; Preemergence
  Plant response rating (0 to 100), Cupgrass, Woolly: 100
Woolly cupgrass; [8]
  Cupgrass, Woolly plant response rating: 85
velvetleaf; [13]
  Velvetleaf plant response rating: 70
velvetleaf; Preemergence, 250 g ai/ha
  Plant response rating (0 to 100), Velvetleaf: 100
velvetleaf; [8]
  Velvetleaf plant response rating: 100
blackgrass; [12]
  Blackgrass plant response rating: 0
blackgrass; [13]
  Blackgrass plant response rating: 0
blackgrass; Preemergence
  Plant response rating (0 to 100), Blackgrass: 90
blackgrass; [8]
  Blackgrass plant response rating: 90
